Measurements reported in patent publication US20100120778A1, “QUINOXALINE-BASED LXR MODULATORS” (Wyeth, priority 2008, published 2010).
Read-outs that look alike come from different tables or passages of the source.

Key:
human LXRα = target: T1, human LXRα (Homo sapiens, UniProt Q13133); test: Ligand-binding test procedure for human LXRα (3H T0901317 tracer, flash plates); conditions: biotinylated hLXRα, tracer 3H T0901317, +4° C. over night
T1 construct: biotin (biotinylated); made in house; host or cells: E. coli
T1 sequence (Q13133 1-447): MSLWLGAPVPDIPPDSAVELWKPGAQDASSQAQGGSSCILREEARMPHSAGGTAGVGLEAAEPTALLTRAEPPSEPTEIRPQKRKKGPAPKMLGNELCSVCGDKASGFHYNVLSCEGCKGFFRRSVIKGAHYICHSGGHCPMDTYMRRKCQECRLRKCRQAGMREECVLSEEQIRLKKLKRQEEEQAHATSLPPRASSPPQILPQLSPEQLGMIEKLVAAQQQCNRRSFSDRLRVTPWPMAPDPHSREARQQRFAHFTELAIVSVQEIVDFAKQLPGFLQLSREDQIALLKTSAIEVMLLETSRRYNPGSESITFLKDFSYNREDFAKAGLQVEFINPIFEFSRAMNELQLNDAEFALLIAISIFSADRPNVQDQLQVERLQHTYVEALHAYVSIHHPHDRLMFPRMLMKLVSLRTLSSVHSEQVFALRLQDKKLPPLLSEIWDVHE
Experimental: II. Ligand-Binding Test Procedure for Human LXRα.
Receptor source: E. coli extract from cells expressing biotinylated hLXRα. Extract was made in a similar buffer as above, but with 50 mM TRIS.
Washed streptavidin and coated flash plates with wash buffer. Diluted receptor extract to give Bmax˜4000 cpm and add to the wells. Wrapped the plates in aluminum foil and stored them at +4° C. over night.
Made a dilution series in DMSO of the test ligands. Made a 5 nM solution of the radioactive tracer in buffer. Mixed 250 μl diluted tracer with 5 μl of the test ligand from each concentration of the dilution series. Washed the receptor-coated flash plates. Added 200 μl per well of the ligand/radiolabel mixture to the receptor-coated flash plates. Wrapped the plates in aluminum foil and incubate at +4° C. over night.
Aspirated wells, and wash the flashed plates. Sealed the plate. Measured the remaining radioactivity in the plate.

[1] = tested on: ABCA1 gene (regulation by LXR) in THP-1 cells; test: Quantitative analysis of ABCA1 gene regulation in THP-1 cells (real-time RT-PCR); type: cell-based, human; conditions: for Agonism ABCA1: LXR agonist reference at 1.0 uM as positive control; for EC50: Homo sapiens, read-out: EC50 ABCA1
Experimental: III. Quantitative Analysis of ABCA1 Gene Regulation In THP-1 Cells. The compounds of formula (I) effect on the regulation of the ABCA1 gene was evaluated using the following procedure. Materials and Methods Cell culture: The THP-1 monocytic cell line (ATCC # TIB-202) was obtained from American Type Culture Collection (Manassas, Va.) and cultured in RPMI 1640 medium (Gibco, Carlsbad, Calif.) containing 10% FBS, 2 mM L-glutamine, and 55 uM beta-Mercaptoethanol (BME). […] Louis, Mo.) for three days to induce differentiation into adherent macrophages. Differentiated THP-1 cells were treated with test compounds or ligands dissolved in DMSO (Sigma, D-8779) in culture medium lacking phorbal ester. […] Dose response effects were measured in duplicate, in the range of 0.001 to 30 micromolar concentrations and treated cells were incubated for an additional 18 hrs prior to RNA isolation. Unstimulated cells treated with vehicle were included as negative controls on each plate. […] L., J. Med. Chem. (2000), 45:1963-1966.). Results of antagonist analysis are expressed as % antagonism and IC50 (in μM). RNA isolation and quantitation: Total cellular RNA was isolated from treated cells cultured in 96-well plates using PrepStation 6100 (Applied Biosystems, Foster City, Calif.), according to the manufacturer's recommendations. RNA was resuspended in ribonuclease-free water and stored at -70° C. prior to analysis. RNA concentrations were quantitated with RiboGreen test procedure, #R-11490 (Molecular Probes, Eugene, Oreg.). Gene expression analysis: Gene-specific mRNA quantitation was performed by real-time PCR with the Perkin Elmer Corp. chemistry on an ABI Prism 7700 Sequence detection system (Applied Biosystems, Foster City, Calif.) according to the manufacturer's instructions. Samples (50-100 ng) of total RNA were assayed in duplicate or triplicate in 50 μl reactions using one-step RT-PCR and the standard curve method to estimate specific mRNA concentrations. Sequences of gene-specific primer and probe sets were designed with Primer Express Software (Applied Biosystems, Foster City, Calif.). The human ABCA1 primer and probe sequences are: forward, [NT], reverse, [NT], and probe, 6[…] and PCR reactions were performed according to PE Applied Biosystem's protocol for Taqman Gold RT-PCR or Qiagen's protocol for Quantitect probe RT-PCR. Relative levels of ABCA1 mRNA are normalized using GAPDH mRNA or 18S rRNA probe/primer sets purchased commercially (Applied Biosystems, Foster City, Calif.). Statistics: Mean, standard deviation and statistical significance of duplicate evaluations of RNA samples were assessed using ANOVA, one-way analysis of variance using SAS analysis.

human LXRβ = target: T2, human LXRβ (Homo sapiens, UniProt P55055); test: Ligand-binding test procedure for human LXRβ (3H T0901317 tracer, flash plates); conditions: biotinylated hLXRβ, tracer 3H T0901317, +4° C. over night
T2 construct: biotin (biotinylated); made in house; host or cells: E. coli
T2 sequence (P55055 1-460): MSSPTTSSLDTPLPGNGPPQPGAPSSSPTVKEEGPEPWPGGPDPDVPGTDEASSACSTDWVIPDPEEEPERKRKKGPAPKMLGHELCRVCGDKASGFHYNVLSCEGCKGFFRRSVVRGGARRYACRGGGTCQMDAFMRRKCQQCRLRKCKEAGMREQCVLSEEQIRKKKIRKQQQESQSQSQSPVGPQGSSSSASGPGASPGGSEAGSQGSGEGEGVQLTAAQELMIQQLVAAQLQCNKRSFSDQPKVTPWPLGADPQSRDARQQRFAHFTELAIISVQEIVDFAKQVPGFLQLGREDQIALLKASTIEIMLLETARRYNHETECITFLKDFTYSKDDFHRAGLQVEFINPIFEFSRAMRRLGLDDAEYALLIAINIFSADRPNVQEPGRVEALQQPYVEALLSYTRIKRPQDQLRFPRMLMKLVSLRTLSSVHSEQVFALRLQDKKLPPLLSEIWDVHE

[2] = Gene regulation by LXR (THP1), differentiated THP-1 cells, 18 hrs
[3] = Gene regulation by LXR (THP1), differentiated THP-1 cells, 18 hrs, ABCA1 mRNA

## CNS(=O)(=O)c1cccc(-c2ccc(-c3nc4cccc(C(F)(F)F)c4nc3C)cc2)c1 [Example 53, N-methyl-4′-[3-methyl-5-(trifluoromethyl)quinoxalin-2-yl]biphenyl-3-sulfonamide]
Human LXRα
  IC50: > 1000 nM
[1]; [2]
  Agonism ABCA1: 55%
[1]; THP-1, 18 h
  EC50: 1400 nM

## Cc1nc2c(C(F)(F)F)cccc2nc1-c1cc(Oc2cccc(S(=O)(=O)CCCC#N)c2)ccc1Cl [Example 77, 4-[(3-{4-chloro-3-[3-methyl-5-(trifluoromethyl)quinoxalin-2-yl]phenoxy}phenyl)sulfonyl]-butanenitrile]
Human LXRα
  IC50: 405 nM
Human LXRβ
  IC50: 128 nM
[1]; [2]
  Agonism ABCA1: 45%
[1]; [3]
  EC50: 4420 nM

## Cc1nc2c(C(F)(F)F)cccc2nc1-c1ccc(-c2cccc(S(C)(=O)=O)c2)cc1 [Example 1, 3-methyl-2-[3′-(methylsulfonyl)biphenyl-4-yl]-5-(trifluoromethyl)quinoxaline]
Human LXRα
  IC50: 752 nM
Human LXRβ
  IC50: 49 nM
[1]; [2]
  Agonism ABCA1: 79%
[1]; [3]
  EC50: 1090 nM

## CCS(=O)(=O)c1cccc(-c2ccc(-c3nc4cccc(C(F)(F)F)c4nc3C)cc2)c1 [Example 31, 2-[3′-(ethylsulfonyl)biphenyl-4-yl]-3-methyl-5-(trifluoromethyl)quinoxaline]
Human LXRα
  IC50: 265 nM
[1]; [2]
  Agonism ABCA1: 65%
[1]; THP-1, 18 h
  EC50: 890 nM
